In patent US10765114B2, “4-amino-6-(pyridyl and 2-substitutedphenyl)-picolinates and 6-amino-2-(pyridyl and 2-substitutedphenyl)-pyrimidine-4-carboxylates and their use as herbicides” (Dow AgroSciences LLC, priority 2013, dated 2020):
Where two headings read alike, the source gives them in different places.

Key:
[1] = system: Key Broadleaf Weed and Crop Species; experiment: Post-Emergent Test II (Table 5); format: in vivo; conditions: post-emergence, 336 h; for pest or weed control at 70 g/ha: application rate 70 (kg ai/ha; footnote: g ai/ha); for pest or weed control at 140 g/ha: application rate 140 (kg ai/ha; footnote: g ai/ha)
Procedure, shortened: (§1)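 Post-emergence greenhouse spray, 1st-2nd true leaf stage; track sprayer, 187 L/ha; acetone/DMSO stock diluted in aqueous acetone/IPA/DMSO with Atplus 411F and Triton X-155; rates 1× to 1/16×; subirrigated; visual injury 0 (none) to 100% (complete kill) at 14 days.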

[2] = system: Key Grass and Sedge Weeds as well as Grass Crops; experiment: Post-Emergent Test II (Table 6); format: in vivo; conditions: post-emergence, 336 h, 14 days after application; for pest or weed control at 70 g/ha: 70 g ai/ha; for pest or weed control at 140 g/ha: 140 g ai/ha
Procedure, shortened: as §1

[3] = Abutilon theophrasti, ABUTH: velvetleaf (Abutilon theophrasti), read-out: Visual Growth Reduction (%) 14 Days After Application ABUTH
[4] = Amaranthus retroflexus, AMARE: redroot pigweed (Amaranthus retroflexus), read-out: Visual Growth Reduction (%) 14 Days After Application AMARE
[5] = Brassica napus, BRSSS: oilseed rape, canola (Brassica napus), read-out: Visual Growth Reduction (%) 14 Days After Application BRSSS
[6] = Chenopodium album, CHEAL: lambsquarters (Chenopodium album), read-out: Visual Growth Reduction (%) 14 Days After Application CHEAL
[7] = Euphorbia heterophylla, EPHHL: wild poinsettia (Euphorbia heterophylla), read-out: Visual Growth Reduction (%) 14 Days After Application EPHHL
[8] = Helianthus annuus, HELAN: sunflower (Helianthus annuus), read-out: Visual Growth Reduction (%) 14 Days After Application HELAN
[9] = Viola tricolor, VIOTR: wild pansy (Viola tricolor), read-out: Visual Growth Reduction (%) 14 Days After Application VIOTR
[10] = CYPSS, read-out: Visual Growth Reduction (%) 14 Days After Application CYPSS
[11] = DIGSA: crabgrass (Digitaria sanguinalis), read-out: Visual Growth Reduction (%) 14 Days After Application DIGSA
[12] = ECHSS, read-out: Visual Growth Reduction (%) 14 Days After Application ECHSS
[13] = ORYSS (crop), read-out: Visual Growth Reduction (%) 14 Days After Application ORYSS
[14] = SETFA: giant foxtail (Setaria faberi), read-out: Visual Growth Reduction (%) 14 Days After Application SETFA
[15] = SORVU: grain sorghum (Sorghum vulgare), read-out: Visual Growth Reduction (%) 14 Days After Application SORVU
[16] = TRZSS (crop), read-out: Visual Growth Reduction (%) 14 Days After Application TRZSS
[17] = ZEAMX: maize, corn (Zea mays), read-out: Visual Growth Reduction (%) 14 Days After Application ZEAMX

Row | SMILES | pest or weed control at 70 g/ha [1, 3] [%] | pest or weed control at 140 g/ha [1, 3] [%] | pest or weed control at 70 g/ha [1, 4] [%] | pest or weed control at 140 g/ha [1, 4] [%] | pest or weed control at 70 g/ha [1, 5] [%] | pest or weed control at 140 g/ha [1, 5] [%] | pest or weed control at 70 g/ha [1, 6] [%] | pest or weed control at 140 g/ha [1, 6] [%] | pest or weed control at 70 g/ha [1, 7] [%] | pest or weed control at 140 g/ha [1, 7] [%] | pest or weed control at 70 g/ha [1, 8] [%] | pest or weed control at 140 g/ha [1, 8] [%] | pest or weed control at 70 g/ha [1, 9] [%] | pest or weed control at 140 g/ha [1, 9] [%] | pest or weed control at 70 g/ha [2, 10] [%] | pest or weed control at 140 g/ha [2, 10] [%] | pest or weed control at 70 g/ha [2, 11] [%] | pest or weed control at 140 g/ha [2, 11] [%] | pest or weed control at 70 g/ha [2, 12] [%] | pest or weed control at 140 g/ha [2, 12] [%] | further results
1 | Nc1cc(-c2ccc(Cl)c(F)c2CF)nc(C(=O)O)c1Cl [Compound 80, 4-Amino-3-chloro-6-(4-chloro-3-fluoro-2-(fluoromethyl)phenyl)picolinic acid] | 75 to 84 | 75 to 84 | 95 to 100 | 95 to 100 | 95 to 100 | 95 to 100 | 95 to 100 | 95 to 100 | 0 to 29 | 0 to 29 | 85 to 94 | 85 to 94 | 0 to 29 | 0 to 29 | 0 to 29 | 0 to 29 | 0 to 29 | 0 to 29 | 0 to 29 | 0 to 29 | pest or weed control at 70 g/ha [2, 13]: 0 to 29%; pest or weed control at 140 g/ha [2, 13]: 0 to 29%; pest or weed control at 70 g/ha [2, 14]: 0 to 29%; pest or weed control at 140 g/ha [2, 14]: 0 to 29%; pest or weed control at 70 g/ha [2, 15]: 0 to 29%; pest or weed control at 140 g/ha [2, 15]: 0 to 29%; pest or weed control at 70 g/ha [2, 16]: 0 to 29%; pest or weed control at 140 g/ha [2, 16]: 0 to 29%; pest or weed control at 70 g/ha [2, 17]: 0 to 29%; pest or weed control at 140 g/ha [2, 17]: 0 to 29%
2 | Nc1c(F)c(-c2ccc(I)nc2)nc(C(=O)O)c1Cl [Compound 81] | 85 to 94 | 85 to 94 | 95 to 100 | 95 to 100 | 85 to 94 | 85 to 94 | 95 to 100 | 95 to 100 | 95 to 100 | 95 to 100 | 75 to 84 | 85 to 94 | 95 to 100 | 95 to 100 | 95 to 100 | 95 to 100 | 75 to 84 | 75 to 84 | 85 to 94 | 85 to 94 | pest or weed control at 70 g/ha [2, 13]: 45 to 59%; pest or weed control at 140 g/ha [2, 13]: 60 to 74%; pest or weed control at 70 g/ha [2, 14]: 75 to 84%; pest or weed control at 140 g/ha [2, 14]: 85 to 94%; pest or weed control at 70 g/ha [2, 15]: 45 to 59%; pest or weed control at 140 g/ha [2, 15]: 45 to 59%; pest or weed control at 70 g/ha [2, 16]: 60 to 74%; pest or weed control at 140 g/ha [2, 16]: 60 to 74%; pest or weed control at 70 g/ha [2, 17]: 30 to 44%; pest or weed control at 140 g/ha [2, 17]: 45 to 59%
3 | COc1c(-c2cc(N)c(Cl)c(C(=O)O)n2)ccc(Cl)c1F [Compound 84, 4-amino-3-chloro-6-(4-chloro-3-fluoro-2-methoxyphenyl)picolinic acid] | 95 to 100 | 95 to 100 | 95 to 100 | 95 to 100 | 95 to 100 | 95 to 100 | 95 to 100 | 95 to 100 | 0 to 29 | 0 to 29 | 85 to 94 | 85 to 94 | 95 to 100 | 95 to 100 | 0 to 29 | 0 to 29 | 0 to 29 | 0 to 29 | 0 to 29 | 0 to 29 | pest or weed control at 70 g/ha [2, 13]: 0 to 29%; pest or weed control at 140 g/ha [2, 13]: 0 to 29%; pest or weed control at 70 g/ha [2, 14]: 0 to 29%; pest or weed control at 140 g/ha [2, 14]: 0 to 29%; pest or weed control at 70 g/ha [2, 15]: 0 to 29%; pest or weed control at 140 g/ha [2, 15]: 0 to 29%; pest or weed control at 70 g/ha [2, 16]: 0 to 29%; pest or weed control at 140 g/ha [2, 16]: 0 to 29%; pest or weed control at 70 g/ha [2, 17]: 0 to 29%; pest or weed control at 140 g/ha [2, 17]: 0 to 29%
4 | C=Cc1c(-c2cc(N)c(Cl)c(C(=O)O)n2)ccc(Cl)c1F [Compound 89, 4-Amino-3-chloro-6-(4-chloro-3-fluoro-2-vinylphenyl)picolinic acid] | 85 to 94 | 95 to 100 | 95 to 100 | 95 to 100 | 95 to 100 | 95 to 100 | 95 to 100 | 95 to 100 | 30 to 44 | 45 to 59 | 95 to 100 | 95 to 100 | 45 to 59 | 60 to 74 | 0 to 29 | 0 to 29 | 30 to 44 | 75 to 84 | 75 to 84 | 85 to 94 | pest or weed control at 70 g/ha [2, 13]: 0 to 29%; pest or weed control at 140 g/ha [2, 13]: 0 to 29%; pest or weed control at 70 g/ha [2, 14]: 0 to 29%; pest or weed control at 140 g/ha [2, 14]: 0 to 29%; pest or weed control at 70 g/ha [2, 15]: 0 to 29%; pest or weed control at 140 g/ha [2, 15]: 0 to 29%; pest or weed control at 70 g/ha [2, 16]: 0 to 29%; pest or weed control at 140 g/ha [2, 16]: 0 to 29%; pest or weed control at 70 g/ha [2, 17]: 0 to 29%; pest or weed control at 140 g/ha [2, 17]: 0 to 29%
